How the values were obtained:
[1] = biological target: T1, Dual specificity mitogen-activated protein kinase kinase 6 (Homo sapiens) (UniProt P52564); details: at 10 µM
T1 sequence (whole entry): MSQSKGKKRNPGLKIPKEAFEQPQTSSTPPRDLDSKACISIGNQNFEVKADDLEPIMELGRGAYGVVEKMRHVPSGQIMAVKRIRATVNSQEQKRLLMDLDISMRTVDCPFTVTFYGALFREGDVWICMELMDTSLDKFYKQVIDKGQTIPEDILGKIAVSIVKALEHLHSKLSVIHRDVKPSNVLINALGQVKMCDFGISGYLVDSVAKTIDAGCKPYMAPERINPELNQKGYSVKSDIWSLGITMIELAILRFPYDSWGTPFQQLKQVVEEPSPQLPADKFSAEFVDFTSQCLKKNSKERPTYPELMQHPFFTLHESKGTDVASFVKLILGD

SRSF protein kinase 1 = SRSF protein kinase 1 (Homo sapiens, UniProt Q96SB4); experiment: Selectivity interaction (KinomeScan (DiscoverX)) EUB0000092b SRPK1; details: at 10 µM
[2] = biological target: Mitogen-activated protein kinase 7 (Homo sapiens) (UniProt Q13164); experiment: Selectivity interaction (KinomeScan (DiscoverX)) EUB0001079a MAPK7; details: at 1 µM
[3] = biological target: Chromatin remodeling regulator CECR2 (Homo sapiens, UniProt Q9BXF3); experiment: Selectivity interaction (Human bromodomain panel (DSF assay)) EUB0000233b CECR2
[4] = biological target: Cyclin-dependent kinase 1 (Homo sapiens) (UniProt P06493); experiment: Selectivity interaction (Kinase panel (KiNativ target engagement assay in Jurkat cells)) EUB0001635a CDK1; type: cell-based; details: Selectivity number of off-targets 0.0, Selectivity number of targets 233.0, Source Knowledge https://www.sciencedirect.com/science/article/pii/S2451945619300674?via%3Dihub, at 1 µM
[5] = biological target: Glycogen synthase kinase-3 beta (Homo sapiens, UniProt P49841); experiment: Selectivity interaction (Kinase panel (KiNativ target engagement assay in Jurkat cells)) EUB0001635a GSK3B; type: cell-based; details: Selectivity number of off-targets 0.0, Selectivity number of targets 233.0, Source Knowledge https://www.sciencedirect.com/science/article/pii/S2451945619300674?via%3Dihub, at 1 µM
[6] = biological target: Mitogen-activated protein kinase 11 (Homo sapiens) (UniProt Q15759); experiment: Selectivity interaction (Kinase panel (KiNativ target engagement assay in Jurkat cells)) EUB0001635a MAPK11; type: cell-based; details: Selectivity number of off-targets 0.0, Selectivity number of targets 233.0, Source Knowledge https://www.sciencedirect.com/science/article/pii/S2451945619300674?via%3Dihub, at 1 µM
[7] = tested on: Epidermal growth factor receptor (Homo sapiens), P00533 [L858R]; experiment: (§1) Selectivity interaction (KinomeScan (DiscoverX)) EUB0000666a EGFR; details: at 10 µM
[8] = tested on: Epidermal growth factor receptor (Homo sapiens), P00533 [T790M]; experiment: as §1; details: at 10 µM
[9] = tested on: Epidermal growth factor receptor (Homo sapiens), P00533 [G719C]; experiment: as §1; details: at 10 µM
[10] = tested on: Epidermal growth factor receptor (Homo sapiens), P00533 [UNDEFINED MUTATION]; experiment: as §1; details: at 10 µM
[11] = tested on: Epidermal growth factor receptor (Homo sapiens), P00533 [L858R,T790M]; experiment: as §1; details: at 10 µM
[12] = tested on: Epidermal growth factor receptor (Homo sapiens), P00533 [G719S]; experiment: as §1; details: at 10 µM
[13] = biological target: Tyrosine-protein kinase Fer (Homo sapiens) (UniProt P16591); details: at 10 µM
[14] = biological target: Serine/threonine-protein kinase N1 (Homo sapiens, UniProt Q16512); experiment: Selectivity interaction (Kinase panel (Invitrogen)) EUB0000639a PKN1; details: at 200 nM
[15] = biological target: Serine/threonine-protein kinase PRP4 homolog (Homo sapiens) (UniProt Q13523); experiment: Selectivity interaction (ActivX KiNativ screen (kinase selectivity in THP-1 cell lysates)) EUB0000639a PRPF4; type: subcellular; details: lysate, at 0.01 µM
[16] = biological target: T2, Interleukin-1 receptor-associated kinase 3 (Homo sapiens) (UniProt Q9Y616); experiment: Selectivity interaction (KinomeScan (DiscoverX)) EUB0000695a IRAK3; details: at 100 nM
T2 sequence (whole entry): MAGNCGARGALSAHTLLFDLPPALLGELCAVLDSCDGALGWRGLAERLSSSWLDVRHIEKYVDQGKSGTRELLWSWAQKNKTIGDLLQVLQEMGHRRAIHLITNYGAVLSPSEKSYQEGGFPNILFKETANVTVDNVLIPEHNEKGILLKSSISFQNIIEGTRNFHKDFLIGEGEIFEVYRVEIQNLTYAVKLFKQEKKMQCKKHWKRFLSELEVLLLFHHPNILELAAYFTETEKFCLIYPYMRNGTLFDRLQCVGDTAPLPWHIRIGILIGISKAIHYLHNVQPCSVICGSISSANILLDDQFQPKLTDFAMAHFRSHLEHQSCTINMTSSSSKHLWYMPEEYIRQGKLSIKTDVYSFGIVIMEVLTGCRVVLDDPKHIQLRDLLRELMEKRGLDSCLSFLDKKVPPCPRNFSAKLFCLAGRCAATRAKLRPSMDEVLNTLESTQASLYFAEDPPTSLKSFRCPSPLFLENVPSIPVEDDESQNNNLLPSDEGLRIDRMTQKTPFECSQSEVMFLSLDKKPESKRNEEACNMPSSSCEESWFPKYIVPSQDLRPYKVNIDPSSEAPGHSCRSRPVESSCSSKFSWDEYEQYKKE

[17] = biological target: T3, Cytoplasmic tyrosine-protein kinase BMX (Homo sapiens) (UniProt P51813); experiment: Selectivity interaction (KinomeScan (DiscoverX)) EUB0000618a BMX; details: at 10 µM
T3 sequence (whole entry): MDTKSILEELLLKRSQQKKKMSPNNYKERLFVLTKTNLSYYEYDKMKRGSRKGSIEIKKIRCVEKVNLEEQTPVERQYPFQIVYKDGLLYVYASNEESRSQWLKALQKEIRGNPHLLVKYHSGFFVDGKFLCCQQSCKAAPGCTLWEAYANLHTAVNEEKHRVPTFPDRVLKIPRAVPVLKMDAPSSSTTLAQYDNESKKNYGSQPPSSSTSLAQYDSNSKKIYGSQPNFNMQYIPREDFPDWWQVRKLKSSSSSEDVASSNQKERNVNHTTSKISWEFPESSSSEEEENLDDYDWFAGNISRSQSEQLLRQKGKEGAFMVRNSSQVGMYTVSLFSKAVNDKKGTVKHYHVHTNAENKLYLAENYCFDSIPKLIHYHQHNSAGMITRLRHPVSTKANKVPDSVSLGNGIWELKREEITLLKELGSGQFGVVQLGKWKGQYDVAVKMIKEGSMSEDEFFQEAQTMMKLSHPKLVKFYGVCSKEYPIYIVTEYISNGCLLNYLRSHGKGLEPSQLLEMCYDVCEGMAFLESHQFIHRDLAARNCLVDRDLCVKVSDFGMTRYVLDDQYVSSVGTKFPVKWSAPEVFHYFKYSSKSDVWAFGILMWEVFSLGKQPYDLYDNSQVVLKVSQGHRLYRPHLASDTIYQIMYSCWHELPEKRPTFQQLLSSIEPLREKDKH

[18] = Selectivity interaction (KinomeScan (DiscoverX)) EUB0000618a CDK2H; details: at 10 µM
[19] = biological target: Tyrosine-protein kinase JAK2 (Homo sapiens, UniProt O60674); experiment: Selectivity interaction (Kinase counterscreening (biochemical assay)) EUB0000604a JAK2
[20] = biological target: Mitogen-activated protein kinase 14 (Homo sapiens, UniProt Q16539); experiment: Selectivity interaction (KinomeScan (DiscoverX)) EUB0001619a MAPK14; details: at 1 µM
Mitogen-activated protein kinase 14, sequence (Q16539 whole entry): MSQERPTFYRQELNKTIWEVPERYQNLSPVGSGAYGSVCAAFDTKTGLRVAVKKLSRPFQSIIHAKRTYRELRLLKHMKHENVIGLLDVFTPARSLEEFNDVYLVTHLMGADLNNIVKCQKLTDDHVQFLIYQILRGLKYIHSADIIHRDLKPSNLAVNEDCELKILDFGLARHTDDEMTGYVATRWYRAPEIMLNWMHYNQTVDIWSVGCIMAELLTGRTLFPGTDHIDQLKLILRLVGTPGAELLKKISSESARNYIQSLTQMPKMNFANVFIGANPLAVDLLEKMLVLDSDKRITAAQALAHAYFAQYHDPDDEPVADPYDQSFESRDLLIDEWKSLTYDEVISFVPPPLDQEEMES

Mitogen-activated protein kinase 11 (Homo sapiens), sequence (Q15759 whole entry): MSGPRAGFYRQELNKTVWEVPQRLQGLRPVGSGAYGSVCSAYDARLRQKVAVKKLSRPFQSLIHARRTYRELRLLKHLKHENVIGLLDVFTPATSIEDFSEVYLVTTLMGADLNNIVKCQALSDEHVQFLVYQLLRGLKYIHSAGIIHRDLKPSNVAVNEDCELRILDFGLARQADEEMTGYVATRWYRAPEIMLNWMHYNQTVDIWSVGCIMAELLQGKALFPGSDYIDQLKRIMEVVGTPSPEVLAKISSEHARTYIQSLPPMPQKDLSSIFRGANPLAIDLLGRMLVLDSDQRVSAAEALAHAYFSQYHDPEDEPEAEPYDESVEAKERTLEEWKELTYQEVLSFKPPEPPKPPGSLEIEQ
Tyrosine-protein kinase Fer (Homo sapiens), sequence (P16591 whole entry, looked up): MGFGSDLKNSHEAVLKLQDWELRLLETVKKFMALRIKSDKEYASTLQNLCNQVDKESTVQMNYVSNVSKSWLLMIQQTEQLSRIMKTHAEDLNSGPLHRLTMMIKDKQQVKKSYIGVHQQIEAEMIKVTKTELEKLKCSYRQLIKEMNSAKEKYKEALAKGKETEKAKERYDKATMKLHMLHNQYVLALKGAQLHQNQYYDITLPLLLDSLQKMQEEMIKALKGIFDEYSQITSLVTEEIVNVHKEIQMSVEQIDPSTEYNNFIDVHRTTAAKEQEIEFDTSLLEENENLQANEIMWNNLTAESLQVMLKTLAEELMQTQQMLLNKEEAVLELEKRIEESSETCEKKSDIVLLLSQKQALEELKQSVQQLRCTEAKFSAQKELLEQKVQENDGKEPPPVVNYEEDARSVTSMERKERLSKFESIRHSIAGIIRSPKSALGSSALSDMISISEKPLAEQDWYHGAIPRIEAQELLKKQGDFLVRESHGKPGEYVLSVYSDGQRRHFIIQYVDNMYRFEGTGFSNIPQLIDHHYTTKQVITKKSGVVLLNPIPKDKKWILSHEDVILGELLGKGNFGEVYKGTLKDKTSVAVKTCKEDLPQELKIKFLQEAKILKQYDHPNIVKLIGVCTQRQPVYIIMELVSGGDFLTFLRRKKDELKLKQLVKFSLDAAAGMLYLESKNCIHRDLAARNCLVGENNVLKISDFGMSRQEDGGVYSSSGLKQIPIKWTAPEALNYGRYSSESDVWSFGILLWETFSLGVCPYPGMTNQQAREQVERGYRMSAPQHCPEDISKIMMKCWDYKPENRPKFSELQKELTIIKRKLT
Epidermal growth factor receptor (Homo sapiens), P00533 [UNDEFINED MUTATION], sequence (P00533 whole entry, looked up, stated change not applied): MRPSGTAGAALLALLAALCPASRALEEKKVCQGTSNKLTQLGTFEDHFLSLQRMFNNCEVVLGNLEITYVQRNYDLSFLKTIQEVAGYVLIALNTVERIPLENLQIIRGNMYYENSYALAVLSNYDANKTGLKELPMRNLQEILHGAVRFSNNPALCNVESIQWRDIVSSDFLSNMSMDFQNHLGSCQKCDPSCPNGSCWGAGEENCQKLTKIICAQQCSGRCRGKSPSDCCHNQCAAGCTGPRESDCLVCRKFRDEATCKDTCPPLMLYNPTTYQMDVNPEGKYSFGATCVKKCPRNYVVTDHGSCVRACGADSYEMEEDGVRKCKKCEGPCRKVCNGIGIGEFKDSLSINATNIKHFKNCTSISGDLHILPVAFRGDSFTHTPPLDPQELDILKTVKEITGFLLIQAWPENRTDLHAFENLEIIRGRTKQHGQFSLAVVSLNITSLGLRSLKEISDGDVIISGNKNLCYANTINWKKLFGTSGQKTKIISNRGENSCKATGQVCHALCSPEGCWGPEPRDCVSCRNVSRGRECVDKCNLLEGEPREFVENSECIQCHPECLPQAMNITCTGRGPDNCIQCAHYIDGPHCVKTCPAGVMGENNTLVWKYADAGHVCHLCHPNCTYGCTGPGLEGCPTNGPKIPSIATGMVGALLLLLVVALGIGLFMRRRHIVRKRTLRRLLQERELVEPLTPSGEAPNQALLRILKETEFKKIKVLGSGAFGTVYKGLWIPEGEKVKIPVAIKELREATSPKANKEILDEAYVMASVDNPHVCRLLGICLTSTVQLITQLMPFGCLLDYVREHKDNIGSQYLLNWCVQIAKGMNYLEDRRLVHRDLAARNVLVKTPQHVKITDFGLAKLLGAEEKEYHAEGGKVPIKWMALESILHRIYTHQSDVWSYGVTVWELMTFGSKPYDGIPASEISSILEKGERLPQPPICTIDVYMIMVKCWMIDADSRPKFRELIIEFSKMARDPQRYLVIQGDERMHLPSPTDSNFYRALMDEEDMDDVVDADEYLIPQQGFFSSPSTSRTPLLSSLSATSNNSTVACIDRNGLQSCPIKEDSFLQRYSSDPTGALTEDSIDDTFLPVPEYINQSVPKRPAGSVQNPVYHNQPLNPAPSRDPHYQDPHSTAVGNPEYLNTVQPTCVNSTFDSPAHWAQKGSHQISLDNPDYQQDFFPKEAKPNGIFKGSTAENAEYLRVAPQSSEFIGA
Epidermal growth factor receptor (Homo sapiens), P00533 [T790M], sequence (P00533 whole entry T790M): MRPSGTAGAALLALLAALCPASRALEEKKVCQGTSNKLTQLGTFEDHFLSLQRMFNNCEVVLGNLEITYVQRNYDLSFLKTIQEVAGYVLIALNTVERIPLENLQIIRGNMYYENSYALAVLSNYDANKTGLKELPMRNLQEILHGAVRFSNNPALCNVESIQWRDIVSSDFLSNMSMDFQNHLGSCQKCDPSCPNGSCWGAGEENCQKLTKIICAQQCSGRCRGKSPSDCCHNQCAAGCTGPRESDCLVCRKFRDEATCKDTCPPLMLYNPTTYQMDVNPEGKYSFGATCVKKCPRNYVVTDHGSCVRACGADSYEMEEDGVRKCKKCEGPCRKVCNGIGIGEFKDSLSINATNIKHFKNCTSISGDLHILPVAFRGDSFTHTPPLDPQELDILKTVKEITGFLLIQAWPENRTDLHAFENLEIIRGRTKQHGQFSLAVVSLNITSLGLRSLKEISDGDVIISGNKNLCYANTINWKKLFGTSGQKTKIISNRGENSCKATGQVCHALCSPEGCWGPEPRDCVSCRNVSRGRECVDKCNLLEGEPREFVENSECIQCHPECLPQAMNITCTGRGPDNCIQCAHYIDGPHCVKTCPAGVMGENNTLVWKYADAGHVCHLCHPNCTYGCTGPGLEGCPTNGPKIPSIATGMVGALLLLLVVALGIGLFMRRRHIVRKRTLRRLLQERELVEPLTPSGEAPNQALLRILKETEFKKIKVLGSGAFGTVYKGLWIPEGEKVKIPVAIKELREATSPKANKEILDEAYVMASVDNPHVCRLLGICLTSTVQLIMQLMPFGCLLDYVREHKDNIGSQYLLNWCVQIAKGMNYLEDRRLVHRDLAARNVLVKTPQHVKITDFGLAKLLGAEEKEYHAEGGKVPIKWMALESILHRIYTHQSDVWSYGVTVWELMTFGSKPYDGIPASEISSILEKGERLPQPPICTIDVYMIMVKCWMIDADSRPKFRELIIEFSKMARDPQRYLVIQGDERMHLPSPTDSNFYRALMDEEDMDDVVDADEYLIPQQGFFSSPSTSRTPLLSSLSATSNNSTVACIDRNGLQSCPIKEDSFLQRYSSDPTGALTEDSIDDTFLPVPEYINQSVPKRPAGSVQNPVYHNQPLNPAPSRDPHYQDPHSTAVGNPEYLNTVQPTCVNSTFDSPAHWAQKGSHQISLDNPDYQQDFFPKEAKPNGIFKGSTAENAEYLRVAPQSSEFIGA
Serine/threonine-protein kinase N1, sequence (Q16512 2-942 limits assumed): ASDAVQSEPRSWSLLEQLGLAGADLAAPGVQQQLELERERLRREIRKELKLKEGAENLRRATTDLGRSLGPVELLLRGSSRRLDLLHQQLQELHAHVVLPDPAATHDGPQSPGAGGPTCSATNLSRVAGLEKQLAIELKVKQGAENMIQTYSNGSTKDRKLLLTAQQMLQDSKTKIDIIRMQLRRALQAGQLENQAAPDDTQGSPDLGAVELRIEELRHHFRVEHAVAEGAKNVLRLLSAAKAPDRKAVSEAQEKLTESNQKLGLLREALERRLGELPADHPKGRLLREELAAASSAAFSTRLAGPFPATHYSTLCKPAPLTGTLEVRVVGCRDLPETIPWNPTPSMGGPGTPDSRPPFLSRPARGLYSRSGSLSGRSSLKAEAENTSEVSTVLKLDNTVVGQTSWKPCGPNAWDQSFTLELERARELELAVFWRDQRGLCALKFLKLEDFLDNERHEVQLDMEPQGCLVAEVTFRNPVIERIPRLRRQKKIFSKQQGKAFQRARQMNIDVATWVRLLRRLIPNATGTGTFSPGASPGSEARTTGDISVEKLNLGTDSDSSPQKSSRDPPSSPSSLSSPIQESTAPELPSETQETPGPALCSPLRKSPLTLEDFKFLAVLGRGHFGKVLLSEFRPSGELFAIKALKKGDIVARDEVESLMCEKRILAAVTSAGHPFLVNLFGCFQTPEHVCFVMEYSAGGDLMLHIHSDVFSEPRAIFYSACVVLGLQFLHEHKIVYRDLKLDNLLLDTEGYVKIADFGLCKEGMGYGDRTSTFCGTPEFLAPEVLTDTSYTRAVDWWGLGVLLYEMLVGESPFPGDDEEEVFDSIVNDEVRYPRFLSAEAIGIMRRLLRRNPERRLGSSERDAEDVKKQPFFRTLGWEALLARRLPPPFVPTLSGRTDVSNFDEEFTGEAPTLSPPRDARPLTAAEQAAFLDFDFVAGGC

## CCN(CC)CCCCNc1ncc2cc(-c3cc(OC)cc(OC)c3)c(NC(=O)NC(C)(C)C)nc2n1
[1]
  % of control: 100%

## CCC(=O)N1CCN(c2ccc(-n3c(=O)ccc4cnc5ccc(-c6cnc7ccccc7c6)cc5c43)cc2C(F)(F)F)CC1
SRSF protein kinase 1
  % of control: 100%

## Nc1cnc(N2CCc3cc(S(=O)(=O)Nc4c(F)cc(Cl)cc4F)cc(N4CCCC4=O)c32)nc1 [TP-020n]
[2]
  % of control: 100%

## CN(C)CCCOc1ccc(-c2cc(NCCCn3cccn3)nc(S(C)(=O)=O)n2)cc1
[3]
  dTM: 11.1 K

## C=CC(=O)Nc1ccc(C(=O)Nc2[nH]nc3c2CN(C(=O)N[C@H](CN(C)C)c2ccccc2)C3(C)C)cc1
[4]
  % of engagement: -3.1%
[5]
  % of engagement: -4.3%
[6]
  % of engagement: -9.9%

## O=C(NOC[C@H](O)CO)c1ccc(F)c(F)c1Nc1ccc(I)cc1F
[7]
  % of control: 79%
[8]
  % of control: 77%
[9]
  % of control: 86%
[10]
  % of control: 84%
[11]
  % of control: 100%
[12]
  % of control: 66%

## Cc1cc([C@@H](C)Nc2ccccc2C(=O)O)c2nc(N3CCOCC3)cc(=O)n2c1 [AZD-6482]
[13]
  % of control: 100%

## CC[C@@H]1[C@H](F)C(=O)N[C@@H]1COc1nccc2cc(C(N)=O)c(OC)cc12 [ZIMLOVISERTIB]
[14]
  % of inhibition: 8.54%
[15]
  % of inhibition: 11%

## Cc1cc(F)c(C(=O)Nc2cccc(-c3nncn3C(C)C)n2)cc1-n1cnc(C2CC2)c1
[16]
  % of control: 100%

## O[C@H]1CC[C@H](Nc2ncc3nc(Nc4c(F)cc(F)cc4F)n([C@H]4CCOC4)c3n2)CC1
[17]
  % of control: 100%
[18]
  % of control: 100%

## Cc1cnc(Nc2ccc(F)cc2Cl)nc1-c1c[nH]c(C(=O)N[C@H](CO)c2cccc(Cl)c2)c1
[19]
  Ki: > 4 µM

## N#Cc1cccc(-c2c[nH]c3ncnc(N4CCOCC4)c23)c1
[20]
  % of control: 100%

Reference: ChEMBL document CHEMBL5465560, “Selectivity Literature for EUbOPEN Chemogenomic Library” (2024)
